The target of the experiment is T1, human TLR8 (Homo sapiens, UniProt Q9NR97).
T1 construct: host or cells: HEK-Blue cells
T1 sequence (Q9NR97 27-1041): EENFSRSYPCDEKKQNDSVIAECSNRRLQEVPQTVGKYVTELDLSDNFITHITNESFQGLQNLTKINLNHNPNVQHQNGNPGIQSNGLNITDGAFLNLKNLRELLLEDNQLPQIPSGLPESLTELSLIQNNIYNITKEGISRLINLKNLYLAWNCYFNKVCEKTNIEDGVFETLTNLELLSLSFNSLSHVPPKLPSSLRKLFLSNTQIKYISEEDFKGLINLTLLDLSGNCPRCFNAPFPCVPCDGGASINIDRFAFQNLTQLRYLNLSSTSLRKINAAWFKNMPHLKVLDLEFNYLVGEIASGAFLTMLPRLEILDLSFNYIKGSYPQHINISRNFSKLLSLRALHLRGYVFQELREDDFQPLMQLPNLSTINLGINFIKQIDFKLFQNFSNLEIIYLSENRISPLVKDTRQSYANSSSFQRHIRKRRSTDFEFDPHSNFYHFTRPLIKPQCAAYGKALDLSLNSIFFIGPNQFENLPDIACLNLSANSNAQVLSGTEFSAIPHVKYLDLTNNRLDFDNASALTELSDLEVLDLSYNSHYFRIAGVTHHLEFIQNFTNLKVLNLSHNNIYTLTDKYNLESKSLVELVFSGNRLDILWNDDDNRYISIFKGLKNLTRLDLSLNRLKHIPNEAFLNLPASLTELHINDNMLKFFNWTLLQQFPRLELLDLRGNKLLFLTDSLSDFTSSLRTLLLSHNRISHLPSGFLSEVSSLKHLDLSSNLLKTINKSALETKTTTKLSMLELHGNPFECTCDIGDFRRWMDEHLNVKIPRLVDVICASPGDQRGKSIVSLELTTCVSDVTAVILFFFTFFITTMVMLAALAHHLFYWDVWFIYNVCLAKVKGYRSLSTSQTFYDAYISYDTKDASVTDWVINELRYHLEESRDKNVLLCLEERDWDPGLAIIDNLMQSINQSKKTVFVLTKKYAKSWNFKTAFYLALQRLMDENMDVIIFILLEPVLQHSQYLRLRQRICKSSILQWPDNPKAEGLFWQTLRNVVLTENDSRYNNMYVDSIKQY
The experiment is described as follows: TLR8 inhibition reporter assay (HEK-Blue SEAP). Format: cell-based. Particulars: HEK-Blue cells overexpressing human TLR8, R848 15.9 μM, 22 hour incubation. The method in brief:
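Dose–response from 0.05 nM to 50 μM was run in HEK-Blue human TLR7, TLR8 and TLR9 reporter cells. After 30 min at room temperature with compound, ligand was added (TLR7 gardiquimod 7.5 μM; TLR8 R848 15.9 μM; TLR9 ODN2006 5 nM) and SEAP measured next day, at 22 h.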
With `Cc1c(-c2cc3[nH]c(=O)n([C@H]4CC[C@@H](NC(C)C)CC4)c3cc2C(C)C)cn2ncnc2c1C` [Example 186, 5-(7,8-dimethyl-[1,2,4]triazolo[1,5-a]pyridin-6-yl)-6-isopropyl-1-((1s,4s)-4-(isopropylamino)cyclohexyl)-1,3-dihydro-2H-benzo[d]imidazol-2-one], half-maximal inhibition (IC50) required 0.13 nM.

Molecule `COCCN1CCC[C@H](n2c(=O)[nH]c3cc(-c4cc(OC)c5ncnn5c4)c(C(C)C)cc32)C1` [Example 221, (S)-6-isopropyl-5-(8-methoxy-[1,2,4]triazolo[1,5-a]pyridin-6-yl)-1-(1-(2-methoxyethyl)piperidin-3-yl)-1,3-dihydro-2H-benzo[d]imidazol-2-one] yielded an IC50 of 5.67 nM.

On to `CCc1cc2c(cc1-c1cc(OC)c3ncnn3c1)[nH]c(=O)n2[C@@H]1CCCN(CC2CC2)C1` [Example 182, (R)-1-(1-(cyclopropylmethyl)piperidin-3-yl)-6-ethyl-5-(8-methoxy-[1,2,4]triazolo[1,5-a]pyridin-6-yl)-1,3-dihydro-2H-benzo[d]imidazol-2-one], for which the IC50 was determined as 2.31 nM.

For the molecule `CCc1cc2c(cc1-c1cc(OC)c3ncnn3c1)[nH]c(=O)n2[C@@H]1CCCN(C2CCOC2)C1` (stereo partly drawn) [Example 212, 6-ethyl-5-(8-methoxy-[1,2,4]triazolo[1,5-a]pyridin-6-yl)-1-((3R)-1-(tetrahydrofuran-3-yl)piperidin-3-yl)-1,3-dihydro-2H-benzo[d]imidazol-2-one], the IC50 was determined as 4.4 nM.

`COc1cc(-c2cc3[nH]c(=O)n([C@H]4CC[C@H](N(C)C)CC4)c3cc2C(C)C)cn2ncnc12` [Example 202, 1-((1r,4r)-4-(dimethylamino)cyclohexyl)-6-isopropyl-5-(8-methoxy-[1,2,4]triazolo[1,5-a]pyridin-6-yl)-1,3-dihydro-2H-benzo[d]imidazol-2-one] showed an IC50 of 0.81 nM.

Turning to `CCc1cc2c(cc1-c1cc(OC)c3ncnn3c1)[nH]c(=O)n2[C@@H]1CCCN(CC2CCOCC2)C1` [Example 175, (R)-6-ethyl-5-(8-methoxy-[1,2,4]triazolo[1,5-a]pyridin-6-yl)-1-(1-((tetrahydro-2H-pyran-4-yl)methyl)piperidin-3-yl)-1,3-dihydro-2H-benzo[d]imidazol-2-one], the IC50 is 2.23 nM.

`CCc1cc2c(cc1-c1cc(OC)c3ncnn3c1)[nH]c(=O)n2[C@@H]1CCCN(C2CCOCC2)C1` [Example 184, (R)-6-ethyl-5-(8-methoxy-[1,2,4]triazolo[1,5-a]pyridin-6-yl)-1-(1-(tetrahydro-2H-pyran-4-yl)piperidin-3-yl)-1,3-dihydro-2H-benzo[d]imidazol-2-one] yielded an IC50 of 14.3 nM.

The molecule `CCc1cc2c(cc1-c1cc(OC)c3ncnn3c1)[nH]c(=O)n2[C@@H]1CCCN(C(C)C)C1` [Example 172, (R)-6-ethyl-1-(1-isopropylpiperidin-3-yl)-5-(8-methoxy-[1,2,4]triazolo[1,5-a]pyridin-6-yl)-1,3-dihydro-2H-benzo[d]imidazol-2-one] registered an IC50 of 1.75 nM.

For `Cc1c(-c2cc3[nH]c(=O)n([C@H]4CC[C@@H](N(C)C)CC4)c3cc2C(C)C)cn2ncnc2c1C` [Example 185, 5-(7,8-dimethyl-[1,2,4]triazolo[1,5-a]pyridin-6-yl)-1-((1s,4s)-4-(dimethylamino)cyclohexyl)-6-isopropyl-1,3-dihydro-2H-benzo[d]imidazol-2-one], the IC50 came to 0.36 nM.

In the case of `COc1cc(-c2cc3[nH]c(=O)n([C@H]4CCCN(CC(N)=O)C4)c3cc2C(C)C)cn2ncnc12` [Example 220, (S)-2-(3-(6-isopropyl-5-(8-methoxy-[1,2,4]triazolo[1,5-a]pyridin-6-yl)-2-oxo-2,3-dihydro-1H-benzo[d]imidazol-1-yl)piperidin-1-yl)acetamide], the half-maximal inhibitory concentration (IC50) was 100 nM.

On to `CCc1cc2c(cc1-c1cc(OC)c3ncnn3c1)[nH]c(=O)n2[C@@H]1CCCN(CCC(F)(F)F)C1` [Example 183, (R)-6-ethyl-5-(8-methoxy-[1,2,4]triazolo[1,5-a]pyridin-6-yl)-1-(1-(3,3,3-trifluoropropyl)piperidin-3-yl)-1,3-dihydro-2H-benzo[d]imidazol-2-one], for which the IC50 turned out to be 6.44 nM.

In turn, `COc1cc(-c2cc3[nH]c(=O)n(C4CCC(N5CCNC(=O)C5)CC4)c3cc2C(C)C)cn2ncnc12` (stereo not shown) [Example 243, 6-isopropyl-5-(8-methoxy-[1,2,4]triazolo[1,5-a]pyridin-6-yl)-1-(4-(3-oxopiperazin-1-yl)cyclohexyl)-1,3-dihydro-2H-benzo[d]imidazol-2-one] registered an IC50 of 81.5 nM.

The molecule `CCc1cc2c(cc1-c1cc(OC)c3ncnn3c1)[nH]c(=O)n2[C@H]1CC[C@@H](N(CC)CC)CC1` [Example 169, 1-((1s,4s)-4-(diethylamino)cyclohexyl)-6-ethyl-5-(8-methoxy-[1,2,4]triazolo[1,5-a]pyridin-6-yl)-1,3-dihydro-2H-benzo[d]imidazol-2-one] displayed an IC50 of 0.74 nM.

In turn, `Cc1cc2c(cc1-c1cc(C)c3ncnn3c1)[nH]c(=O)n2[C@H]1CCCN(C(C)C)C1` [Example 13, (S)-1-(1-isopropylpiperidin-3-yl)-6-methyl-5-(8-methyl-[1,2,4]triazolo[1,5-a]pyridin-6-yl)-1,3-dihydro-2H-benzo[d]imidazol-2-one] registered an IC50 of 62.9 nM.

Turning to `CCN1CCC[C@H](n2c(=O)[nH]c3cc(-c4cc(C)c5ncnn5c4)c(C)cc32)C1` [Example 12, (S)-1-(1-ethylpiperidin-3-yl)-6-methyl-5-(8-methyl-[1,2,4]triazolo[1,5-a]pyridin-6-yl)-1,3-dihydro-2H-benzo[d]imidazol-2-one], the midpoint of inhibition, the IC50, lay at 92.5 nM.

Regarding `CCCN1CCC[C@@H](n2c(=O)[nH]c3cc(-c4cc(OC)c5ncnn5c4)c(CC)cc32)C1` [Example 179, (R)-6-ethyl-5-(8-methoxy-[1,2,4]triazolo[1,5-a]pyridin-6-yl)-1-(1-propylpiperidin-3-yl)-1,3-dihydro-2H-benzo[d]imidazol-2-one], it took 2.48 nM to reach half-maximal inhibition (IC50).

On to `CCc1cc2c(cc1-c1cc(OC)c3ncnn3c1)[nH]c(=O)n2[C@@H]1CCCN(C)C1` [Example 174, (R)-6-ethyl-5-(8-methoxy-[1,2,4]triazolo[1,5-a]pyridin-6-yl)-1-(1-methylpiperidin-3-yl)-1,3-dihydro-2H-benzo[d]imidazol-2-one], for which it took 1.39 nM to reach half-maximal inhibition (IC50).

For `CCc1cc2c(cc1-c1cc(OC)c3ncnn3c1)[nH]c(=O)n2[C@@H]1CCCN(CC2CCC2)C1` [Example 181, (R)-1-(1-(cyclobutylmethyl)piperidin-3-yl)-6-ethyl-5-(8-methoxy-[1,2,4]triazolo[1,5-a]pyridin-6-yl)-1,3-dihydro-2H-benzo[d]imidazol-2-one], the half-inhibitory concentration (IC50) came out at 1.68 nM.

`Cc1cc2c(cc1-c1cc(C)c3ncnn3c1)[nH]c(=O)n2[C@H]1CCCN(C)C1` [Example 11, (S)-6-methyl-5-(8-methyl-[1,2,4]triazolo[1,5-a]pyridin-6-yl)-1-(1-methylpiperidin-3-yl)-1,3-dihydro-2H-benzo[d]imidazol-2-one] showed an IC50 of 143 nM.

Molecule `COc1cc(-c2cc3[nH]c(=O)n([C@H]4CC[C@H](N(CC(C)C)CC(C)C)CC4)c3cc2C(C)C)cn2ncnc12` [Example 205, 1-((1r,4r)-4-(diisobutylamino)cyclohexyl)-6-isopropyl-5-(8-methoxy-[1,2,4]triazolo[1,5-a]pyridin-6-yl)-1,3-dihydro-2H-benzo[d]imidazol-2-one] gave an IC50 of 1.63 nM.

Molecule `COc1cc(-c2cc3[nH]c(=O)n(C4CCN(CCS(C)(=O)=O)CC4)c3cc2C(C)C)cn2ncnc12` [Example 224, 6-isopropyl-5-(8-methoxy-[1,2,4]triazolo[1,5-a]pyridin-6-yl)-1-(1-(2-(methylsulfonyl)ethyl)piperidin-4-yl)-1,3-dihydro-2H-benzo[d]imidazol-2-one] yielded an IC50 of 25.5 nM.

The molecule `COc1cc(-c2cc3[nH]c(=O)n([C@H]4CC[C@@H](NCC5CCOCC5)CC4)c3cc2C(C)C)cn2ncnc12` [Example 196, 6-isopropyl-5-(8-methoxy-[1,2,4]triazolo[1,5-a]pyridin-6-yl)-1-((1s,4s)-4-(((tetrahydro-2H-pyran-4-yl)methyl)amino)cyclohexyl)-1,3-dihydro-2H-benzo[d]imidazol-2-one] yielded an IC50 of 0.05 nM.

Values taken from patent US12187723B2 (BRISTOL-MYERS SQUIBB COMPANY, priority 2019, dated 2025).
